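1) Cells in 96-well plates. 2) Compound, 48 h, 5 concentrations. 3) Linear interpolation between surrounding doses. 4) Unreached endpoint = highest concentration. TGI marks complete inhibition of growth.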
Key:
Assay in all cases: NCI-60 cell line screen, 48 h
786-0 renal = test system: 786-0 renal
A498 renal = test system: A498 renal
A549 NSCLC = test system: A549 NSCLC
ACHN renal = test system: ACHN renal
BT-549 breast = test system: BT-549 breast
CAKI-1 renal = test system: CAKI-1 renal
CCRF-CEM leukemia = test system: CCRF-CEM leukemia
COLO 205 colon = test system: COLO 205 colon
DU-145 prostate = test system: DU-145 prostate
HCC-2998 colon = test system: HCC-2998 colon
HCT-116 colon = test system: HCT-116 colon
HCT-15 colon = test system: HCT-15 colon
HL-60(TB) leukemia = test system: HL-60(TB) leukemia
HOP-62 NSCLC = test system: HOP-62 NSCLC
HOP-92 NSCLC = test system: HOP-92 NSCLC
HS 578T breast = test system: HS 578T breast
HT29 colon = test system: HT29 colon
IGROV1 ovarian = test system: IGROV1 ovarian
K-562 leukemia = test system: K-562 leukemia
KM12 colon = test system: KM12 colon
LOX IMVI melanoma = test system: LOX IMVI melanoma
M14 melanoma = test system: M14 melanoma
MALME-3M melanoma = test system: MALME-3M melanoma
MCF7 breast = test system: MCF7 breast
MDA-MB-231 breast = test system: MDA-MB-231 breast
MDA-MB-435 = test system: MDA-MB-435
MDA-N = test system: MDA-N
MOLT-4 leukemia = test system: MOLT-4 leukemia
NCI-H23 lung = test system: NCI-H23 lung
NCI-H460 lung = test system: NCI-H460 lung
NCI-H522 lung = test system: NCI-H522 lung
NCI/ADR-RES ovarian = test system: NCI/ADR-RES ovarian
OVCAR-3 ovarian = test system: OVCAR-3 ovarian
OVCAR-4 ovarian = test system: OVCAR-4 ovarian
OVCAR-5 ovarian = test system: OVCAR-5 ovarian
OVCAR-8 ovarian = test system: OVCAR-8 ovarian
PC-3 prostate = test system: PC-3 prostate
RPMI-8226 leukemia = test system: RPMI-8226 leukemia
SF-268 CNS = test system: SF-268 CNS
SF-295 CNS = test system: SF-295 CNS
SF-539 CNS = test system: SF-539 CNS
SK-MEL-2 melanoma = test system: SK-MEL-2 melanoma
SK-MEL-28 melanoma = test system: SK-MEL-28 melanoma
SK-MEL-5 melanoma = test system: SK-MEL-5 melanoma
SK-OV-3 ovarian = test system: SK-OV-3 ovarian
SN12C renal = test system: SN12C renal
SNB-19 CNS = test system: SNB-19 CNS
SNB-75 CNS = test system: SNB-75 CNS
SR leukemia = test system: SR leukemia
SW-620 colon = test system: SW-620 colon
T-47D breast = test system: T-47D breast
TK-10 renal = test system: TK-10 renal
U251 CNS = test system: U251 CNS
UACC-257 melanoma = test system: UACC-257 melanoma
UACC-62 melanoma = test system: UACC-62 melanoma
UO-31 renal = test system: UO-31 renal
EKVX NSCLC = test system: EKVX NSCLC
NCI-H226 lung = test system: NCI-H226 lung
RXF 393 renal = test system: RXF 393 renal

Measured: TGI

COc1cc(OC)c2nccc(NCCCN(C)C)c2c1[N+](=O)[O-]
> 100 µM: 786-0 renal | A498 renal | A549 NSCLC | ACHN renal | BT-549 breast | CAKI-1 renal | CCRF-CEM leukemia | COLO 205 colon | DU-145 prostate | HCC-2998 colon | HCT-116 colon | HCT-15 colon | HL-60(TB) leukemia | HOP-62 NSCLC | HOP-92 NSCLC | HS 578T breast | HT29 colon | IGROV1 ovarian | K-562 leukemia | KM12 colon | LOX IMVI melanoma | M14 melanoma | MALME-3M melanoma | MCF7 breast | MDA-MB-231 breast | MDA-MB-435 | MDA-N | MOLT-4 leukemia | NCI-H23 lung | NCI-H460 lung | NCI-H522 lung | NCI/ADR-RES ovarian | OVCAR-3 ovarian | OVCAR-4 ovarian | OVCAR-5 ovarian | OVCAR-8 ovarian | PC-3 prostate | RPMI-8226 leukemia | SF-268 CNS | SF-295 CNS | SF-539 CNS | SK-MEL-2 melanoma | SK-MEL-28 melanoma | SK-MEL-5 melanoma | SK-OV-3 ovarian | SN12C renal | SNB-19 CNS | SNB-75 CNS | SR leukemia | SW-620 colon | T-47D breast | TK-10 renal | U251 CNS | UACC-257 melanoma | UACC-62 melanoma | UO-31 renal

CC1=NN(C(=O)CC(=O)Nc2ccccc2Cl)C(=O)C1N=Nc1ccc(S(=O)(=O)c2ccc(N=NC3C(=O)N(C(=O)CC(=O)Nc4ccccc4Cl)N=C3C)cc2)cc1 (centres undefined)
> 100 µM: 786-0 renal | A549 NSCLC | ACHN renal | BT-549 breast | CAKI-1 renal | CCRF-CEM leukemia | COLO 205 colon | DU-145 prostate | EKVX NSCLC | HCC-2998 colon | HCT-116 colon | HCT-15 colon | HL-60(TB) leukemia | HOP-62 NSCLC | HOP-92 NSCLC | HS 578T breast | HT29 colon | IGROV1 ovarian | K-562 leukemia | KM12 colon | LOX IMVI melanoma | M14 melanoma | MALME-3M melanoma | MCF7 breast | MDA-MB-231 breast | MDA-MB-435 | MDA-N | MOLT-4 leukemia | NCI-H226 lung | NCI-H23 lung | NCI-H460 lung | NCI-H522 lung | NCI/ADR-RES ovarian | OVCAR-3 ovarian | OVCAR-4 ovarian | OVCAR-5 ovarian | OVCAR-8 ovarian | PC-3 prostate | RPMI-8226 leukemia | RXF 393 renal | SF-268 CNS | SF-295 CNS | SF-539 CNS | SK-MEL-2 melanoma | SK-MEL-28 melanoma | SK-MEL-5 melanoma | SK-OV-3 ovarian | SN12C renal | SNB-19 CNS | SNB-75 CNS | SR leukemia | SW-620 colon | T-47D breast | TK-10 renal | U251 CNS | UACC-257 melanoma | UACC-62 melanoma | UO-31 renal

— PubChem BioAssay (NCI)
